Where “and” joins values, the source holds several entries; their conditions need not be identical. Identical values can stand only once. Like-named read-outs stand apart in the source and are kept apart here. Each block holds one compound with its values, some of them ahead of it.
Legend:
SH2 domain of STAT3 = settings: cited from earlier work
A549 tumor-bearing mice [1] = tested on: A549 tumor-bearing mice; parameters: method as in Zhang et al. [2012]; settings: repeated intravenous administration, ref Zhang et al. [2012]; cited from earlier work
[2] = tested on: STAT3 phosphorylation (Tyr705) in A549 cells; assay: Phosphorylation inhibitory assay (western blotting); assay type: cell-based, Human; settings: 24 h
Description: Several concentrations of FBNAF (final conc. 0, 0.2, 0.5 1.0, and 2.0 μM in medium containing 1% DMSO) were added to A549 cells, followed by incubation at 37℃ for 24 h. After harvesting, cells were lysed with Passive Lysis Buffer (Promega, Madison, WI, USA) containing 1% protease inhibitor and 1% phosphatase inhibitor. Cell protein was quantified using a Pierce BCA Protein Assay Kit (Thermo Scientific, Waltham, MA, USA). The samples (15 μg/lane) were loaded and separated on an sodium dodecyl sulfate (SDS) polyacrylamide gel. Western blotting was performed using primary antibodies against STAT3 (1:2000 dilution, #4904, Cell Signaling Technology, Danvers, MA, USA), pSTAT3(Tyr705) (1:2000 dilution, #9145, Cell Signaling Technology), and β-actin (1:5000 dilution, NB600-503, Novus Biologicals, Centennial, CO, USA), as well as anti-rabbit IgG HRP-conjugated antibody (1:3000 dilution, HAF008, R&D Systems, Minneapolis, MN, USA) as a secondary antibody. The western blot bands were detected using Chemi-Lumi One L (Nacalai Tesque) and analyzed using an Amersham imager 600 (Cytiva, Tokyo, Japan). To detect pSTAT3, Chemi-Lumi One Ultra (Nacalai Tesque) was used.

RKO = tested on: RKO; parameters: method as in Wang et al. [2020]; settings: ref Wang et al. [2020]; cited from earlier work
HCT116 = tested on: HCT116; parameters: method as in Wang et al. [2020]; settings: ref Wang et al. [2020]; cited from earlier work
[3] = In vitro stability in mouse plasma; assay type: in vitro ADME, ddY mouse; settings: 3 h incubation in mouse plasma, 37℃, normal-phase TLC
Description: [^18F]FBNAF (152 kBq, 20 μL) in 5% DMSO/PBS ( −) was incubated with ddY mouse plasma (180 μL) at 37℃ for 10, 60, 120, or 180 min. After protein removal using CH3CN (400 μL), the supernatant was filtered through a Cosmonice Filter W and analyzed by TLC (Rf = 0.4, ethyl acetate:hexane = 1:1), followed by radioactivity counting using a γ-counter (2480 Wizard^2, PerkinElmer Japan, Kanagawa, Japan; n = 3). The intact rate (%) was represented as the intact form relative to the total radioactivity.

A549 tumor-bearing mice [4] = assay: In vivo biodistribution; parameters: species or system BALB/c nude mice
Description: (§1) BALB/c nude mice (male, 4 weeks old) and ddY mice (male, 6 weeks old) were purchased from Japan SLC (Shizuoka, Japan) and given free access to food and water. All animal experiments were conducted according to Osaka Medical and Pharmaceutical University guidelines, and the study protocol was approved by the Institutional Experimental Animal Committee (Permission Number: 22-76, AP23-004). To prepare tumor-bearing mice, A549 cells (4 × 10^6 cells/mouse) suspended in culture medium (100 μL) were implanted subcutaneously into the right hind leg of each mouse. Animals with a tumor size of approximately 100 mm^3 (length × width^2 × 1/2) after inoculation with A549 cells were used for in vivo and ex vivo experiments.
(§2) [^18F]FBNAF (115-343 kBq, 100 μL) in 5% DMSO/PBS (−) was intravenously injected into mice. The animals were euthanized under isoflurane anesthesia at 10, 30, 60, and 120 min postinjection, and the tissues of interest were excised and weighed. Radioactivity was measured using a γ-counter. The accumulation of radioactivity was expressed as the percent injected dose per gram tissue (%ID/g) for all tissues excluding the stomach, in which accumulation was expressed as the percent injected dose per organ (%ID). For the blocking study, [^18F]FBNAF (115-360 kBq, 100 μL) in 5% DMSO/PBS (−) was intravenously coinjected with BP-1-102 (3.0 mg/kg, Selleck, Shanghai, China) into mice, and after 30 min, the accumulated radioactivity in the tumor, blood, and muscle were measured. Radioactivity was decay-corrected at the time of administration.

A549 tumor-bearing mice [5] = assay: In vivo blocking study with coinjected BP-1-102; parameters: species or system BALB/c nude mice
Description: as §1, §2

STAT3 = molecular target: T1, STAT3 (Homo sapiens, UniProt P40763); assay: Ex vivo autoradiography and immunohistochemistry; assay type: in vivo, mouse; settings: tumor sections, 30 min postinjection, A549 tumor-bearing mice
T1 construct: sections prepared from the excised tumors of A549 tumor-bearing mice at 30 min postinjection of [^18F]FBNAF; from tissue; host or cells: A549 (human lung cancer) xenograft tumour excised from tumour-bearing mice
T1 sequence (P40763 whole entry): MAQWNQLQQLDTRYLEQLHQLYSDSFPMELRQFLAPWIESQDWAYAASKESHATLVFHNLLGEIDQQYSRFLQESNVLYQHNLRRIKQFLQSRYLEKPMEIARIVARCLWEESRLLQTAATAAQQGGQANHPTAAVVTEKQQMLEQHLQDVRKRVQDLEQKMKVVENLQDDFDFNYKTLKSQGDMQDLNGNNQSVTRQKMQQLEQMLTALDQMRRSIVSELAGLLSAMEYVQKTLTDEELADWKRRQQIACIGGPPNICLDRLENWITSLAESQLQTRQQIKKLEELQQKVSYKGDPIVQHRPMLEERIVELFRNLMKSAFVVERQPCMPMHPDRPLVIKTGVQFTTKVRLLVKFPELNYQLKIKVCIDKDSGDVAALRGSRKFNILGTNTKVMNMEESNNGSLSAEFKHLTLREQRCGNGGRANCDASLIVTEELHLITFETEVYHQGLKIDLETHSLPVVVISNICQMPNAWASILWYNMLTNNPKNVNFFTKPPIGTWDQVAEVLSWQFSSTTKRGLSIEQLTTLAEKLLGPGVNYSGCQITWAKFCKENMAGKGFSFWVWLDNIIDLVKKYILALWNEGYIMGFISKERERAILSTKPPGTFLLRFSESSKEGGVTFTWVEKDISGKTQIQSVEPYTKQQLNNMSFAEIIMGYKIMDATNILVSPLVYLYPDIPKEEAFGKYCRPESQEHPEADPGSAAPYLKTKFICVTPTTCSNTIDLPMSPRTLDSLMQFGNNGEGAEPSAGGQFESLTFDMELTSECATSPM
Description: Tumors were excised 30 min after the intravenous injection of [^18F]FBNAF (3–6 MBq, 100 μL) and immediately frozen in OCT compound. The frozen tumor was cut into 10 µm thick sections using Cryotome and contacted with a phosphor screen in a cassette overnight. The screen was scanned using an Amersham Typhoon scanner (Cytiva), and the resulting images were analyzed using Image-Quant TL (Cytiva).
For immunohistochemistry, adjacent sections were fixed with cold acetone (− 20℃) for 10 min. After blocking using Blocking One Histo (Nacalai Tesque), the sections were incubated with antibodies against STAT3 (1:200 dilution, #4904) or pSTAT3(Tyr705) (1:200 dilution, #9145) overnight at 4℃. After a rinse, anti-rabbit IgG(H + L) CF555 (1:1000 dilution, SAB4600068, Sigma-Aldrich, St. Louis, MO, USA) was added, followed by incubation for 30 min at room temperature. Nuclear staining was performed by incubation with Hoechst 33,342 (Nacalai Tesque) for 10 min.

[6] = blocking group, coinjection of BP-1-102 3.0 mg/kg, 30 min
[7] = control group without BP-1-102, 30 min

SMILES: CN(CC(=O)N(Cc1ccc(C2CCCCC2)cc1)c1ccc(C(=O)O)c(O)c1)S(=O)(=O)c1c(F)c(F)c(F)c(F)c1F [BP-1–102]
Kd (SH2 domain of STAT3; ref Zhang et al. [2012]): 0.504 µM
effect on tumor growth (A549 tumor-bearing mice [1]): inhibited tumor growth

SMILES: CC1CC2=C(O1)c1ccc(OCc3ccc(F)cc3)cc1C(=O)C2=O (stereo not shown) [FBNAF, 7-(4-Fluoro-benzyloxy)-2-methyl-2,3-dihydro-naphtho[1,2-b]furan-4,5-dione]
change in total STAT3 expression ([2]; 0–2 μM): no significant change
inhibition of pSTAT3 expression ([2]; 0.5 μM): 50%
inhibition of pSTAT3 expression ([2]; 1.0 μM): 60%

SMILES: Cc1ccc(COc2ccc3c(c2)C(=O)C(=O)C2=C3OC(C)C2)cc1 (stereo not shown) [LYW-6]
Kd (SH2 domain of STAT3; ref Wang et al. [2020]): 6.6 µM
IC50 (RKO): 3.8 µM
IC50 (HCT116): 4.1 µM

radioactivity in an intact form (intact rate) [3]: more than 85%
Blood radioactivity (A549 tumor-bearing mice [4]; 10 min after i.v. injection): 1.0 ± 0.2 %ID/g
Bone radioactivity (A549 tumor-bearing mice [4]; 10 min after i.v. injection): 2.1 ± 0.2 %ID/g
Brain radioactivity (A549 tumor-bearing mice [4]; 10 min after i.v. injection): 1.9 ± 1.1 %ID/g
Colon radioactivity (A549 tumor-bearing mice [4]; 10 min after i.v. injection): 0.8 ± 0.4 %ID/g
Heart radioactivity (A549 tumor-bearing mice [4]; 10 min after i.v. injection): 2.3 ± 0.8 %ID/g
Kidney radioactivity (A549 tumor-bearing mice [4]; 10 min after i.v. injection): 19.5 ± 7.7 %ID/g
Liver radioactivity (A549 tumor-bearing mice [4]; 10 min after i.v. injection): 10.8 ± 2.8 %ID/g
Lung radioactivity (A549 tumor-bearing mice [4]; 10 min after i.v. injection): 4.4 ± 1.0 %ID/g
Muscle radioactivity (A549 tumor-bearing mice [4]; 10 min after i.v. injection): 2.1 ± 0.8 %ID/g
Pancreas radioactivity (A549 tumor-bearing mice [4]; 10 min after i.v. injection): 6.3 ± 2.9 %ID/g
Small intestine radioactivity (A549 tumor-bearing mice [4]; 10 min after i.v. injection): 11.6 ± 5.5 %ID/g
Spleen radioactivity (A549 tumor-bearing mice [4]; 10 min after i.v. injection): 2.7 ± 0.7 %ID/g
Stomach radioactivity (A549 tumor-bearing mice [4]; 10 min after i.v. injection): 0.6 ± 0.3 %ID
Tumor radioactivity (A549 tumor-bearing mice [4]; 10 min after i.v. injection): 1.5 ± 0.3 %ID/g
Tumor/blood ratio (A549 tumor-bearing mice [4]; 10 min after i.v. injection): 1.6 ± 0.3
Tumor/muscle ratio (A549 tumor-bearing mice [4]; 10 min after i.v. injection): 0.8 ± 0.1
Blood radioactivity (A549 tumor-bearing mice [4]; 30 min after i.v. injection): 1.0 ± 0.3 %ID/g
Bone radioactivity (A549 tumor-bearing mice [4]; 30 min after i.v. injection): 2.3 ± 0.6 %ID/g
Brain radioactivity (A549 tumor-bearing mice [4]; 30 min after i.v. injection): 0.8 ± 0.1 %ID/g
Colon radioactivity (A549 tumor-bearing mice [4]; 30 min after i.v. injection): 0.7 ± 0.4 %ID/g
Heart radioactivity (A549 tumor-bearing mice [4]; 30 min after i.v. injection): 1.5 ± 0.7 %ID/g
Kidney radioactivity (A549 tumor-bearing mice [4]; 30 min after i.v. injection): 4.5 ± 1.2 %ID/g
Liver radioactivity (A549 tumor-bearing mice [4]; 30 min after i.v. injection): 5.3 ± 1.9 %ID/g
Lung radioactivity (A549 tumor-bearing mice [4]; 30 min after i.v. injection): 3.3 ± 2.0 %ID/g
Muscle radioactivity (A549 tumor-bearing mice [4]; 30 min after i.v. injection): 0.6 ± 0.1 %ID/g
Pancreas radioactivity (A549 tumor-bearing mice [4]; 30 min after i.v. injection): 1.1 ± 0.3 %ID/g
Small intestine radioactivity (A549 tumor-bearing mice [4]; 30 min after i.v. injection): 38.3 ± 5.7 %ID/g
Spleen radioactivity (A549 tumor-bearing mice [4]; 30 min after i.v. injection): 1.6 ± 0.5 %ID/g
Stomach radioactivity (A549 tumor-bearing mice [4]; 30 min after i.v. injection): 3.6 ± 2.8 %ID
Tumor radioactivity (A549 tumor-bearing mice [4]; 30 min after i.v. injection): 1.7 ± 0.4 %ID/g
Tumor/blood ratio (A549 tumor-bearing mice [4]; 30 min after i.v. injection): 2.0 ± 1.0
Blood radioactivity (A549 tumor-bearing mice [4]; 60 min after i.v. injection): 0.5 ± 0.1 %ID/g
Bone radioactivity (A549 tumor-bearing mice [4]; 60 min after i.v. injection): 1.5 ± 0.5 %ID/g
Brain radioactivity (A549 tumor-bearing mice [4]; 60 min after i.v. injection): 0.5 ± 0.0 %ID/g
Colon radioactivity (A549 tumor-bearing mice [4]; 60 min after i.v. injection): 11.0 ± 3.5 %ID/g
Heart radioactivity (A549 tumor-bearing mice [4]; 60 min after i.v. injection): 0.7 ± 0.1 %ID/g
Kidney radioactivity (A549 tumor-bearing mice [4]; 60 min after i.v. injection): 0.9 ± 0.3 %ID/g
Liver radioactivity (A549 tumor-bearing mice [4]; 60 min after i.v. injection): 2.2 ± 0.3 %ID/g
Lung radioactivity (A549 tumor-bearing mice [4]; 60 min after i.v. injection): 1.2 ± 0.0 %ID/g
Muscle radioactivity (A549 tumor-bearing mice [4]; 60 min after i.v. injection): 0.5 ± 0.2 %ID/g
Pancreas radioactivity (A549 tumor-bearing mice [4]; 60 min after i.v. injection): 0.5 ± 0.1 %ID/g
Small intestine radioactivity (A549 tumor-bearing mice [4]; 60 min after i.v. injection): 48.4 ± 7.4 %ID/g
Spleen radioactivity (A549 tumor-bearing mice [4]; 60 min after i.v. injection): 0.9 ± 0.1 %ID/g
Stomach radioactivity (A549 tumor-bearing mice [4]; 60 min after i.v. injection): 1.4 ± 1.4 %ID
Tumor radioactivity (A549 tumor-bearing mice [4]; 60 min after i.v. injection): 0.9 ± 0.3 %ID/g
Tumor/blood ratio (A549 tumor-bearing mice [4]; 60 min after i.v. injection): 2.0 ± 0.8
Tumor/muscle ratio (A549 tumor-bearing mice [4]; 60 min after i.v. injection): 2.4 ± 1.2
Blood radioactivity (A549 tumor-bearing mice [4]; 120 min after i.v. injection): 0.3 ± 0.0 %ID/g
Bone radioactivity (A549 tumor-bearing mice [4]; 120 min after i.v. injection): 1.9 ± 0.2 %ID/g
Brain radioactivity (A549 tumor-bearing mice [4]; 120 min after i.v. injection): 0.4 ± 0.1 %ID/g
Colon radioactivity (A549 tumor-bearing mice [4]; 120 min after i.v. injection): 44.4 ± 16.3 %ID/g
Heart radioactivity (A549 tumor-bearing mice [4]; 120 min after i.v. injection): 0.7 ± 0.2 %ID/g
Kidney radioactivity (A549 tumor-bearing mice [4]; 120 min after i.v. injection): 0.5 ± 0.2 %ID/g
Liver radioactivity (A549 tumor-bearing mice [4]; 120 min after i.v. injection): 1.6 ± 0.8 %ID/g
Lung radioactivity (A549 tumor-bearing mice [4]; 120 min after i.v. injection): 1.0 ± 0.3 %ID/g
Muscle radioactivity (A549 tumor-bearing mice [4]; 120 min after i.v. injection): 0.5 ± 0.1 %ID/g
Pancreas radioactivity (A549 tumor-bearing mice [4]; 120 min after i.v. injection): 0.6 ± 0.1 %ID/g
Small intestine radioactivity (A549 tumor-bearing mice [4]; 120 min after i.v. injection): 17.8 ± 2.2 %ID/g
Spleen radioactivity (A549 tumor-bearing mice [4]; 120 min after i.v. injection): 0.8 ± 0.3 %ID/g
Stomach radioactivity (A549 tumor-bearing mice [4]; 120 min after i.v. injection): 0.8 ± 1.0 %ID
Tumor radioactivity (A549 tumor-bearing mice [4]; 120 min after i.v. injection): 0.9 ± 0.3 %ID/g
Tumor/blood ratio (A549 tumor-bearing mice [4]; 120 min after i.v. injection): 2.6 and 2.6 ± 0.8
Tumor/muscle ratio (A549 tumor-bearing mice [4]; 120 min after i.v. injection): 1.9 ± 0.9
tumor-to-blood ratio (A549 tumor-bearing mice [5]; [6]): 1.1 ± 0.3
tumor-to-muscle ratio (A549 tumor-bearing mice [5]; [6]): 2.3 ± 1.2
Tumor radioactivity (A549 tumor-bearing mice [5]; blocking group, coinjection of BP-1-102 3.0 mg/kg, 30 min after administration): 1.0 ± 0.3 % ID/g
radioactivity in blood and muscle, effect of coinjection of the inhibitor (A549 tumor-bearing mice [5]; coinjection of BP-1-102 3.0 mg/kg, 30 min): negligibly affected
tumor-to-blood ratio (A549 tumor-bearing mice [5]; [7]): 2.0 ± 1.0
tumor-to-muscle ratio (A549 tumor-bearing mice [5]; [7]): 2.6 ± 0.3
SMILES: CC1CC2=C(O1)c1ccc(OCc3ccc([18F])cc3)cc1C(=O)C2=O (stereo not shown) [[^18F]FBNAF, 7-(4-[^18F]Fluoro-benzyloxy)-2-methyl-2,3-dihydro-naphtho[1,2-b]furan-4,5-dione]
intratumoral radioactivity distribution versus STAT3 expression (STAT3): almost corresponded to the STAT3 expression profile

— PMC11150212, “Synthesis and evaluation of [^18F]FBNAF, a STAT3-targeting probe, for PET imaging of tumor microenvironment” (EJNMMI Radiopharmacy and Chemistry, 2024)
